Data from patent publication US8633245B2, “PAI-1 inhibitor” (Institute of Medicinal Molecular Design, Inc., priority 2008, dated 2014).

Target: T1, recombinant human PAI-1 (Homo sapiens, UniProt P05121)
T1 construct: purchased Molecular Innovations, Inc
Assay: Test Example 1: human PAI-1 inhibitory activity (tPA fluorogenic substrate, pH 7.5 Tris buffer)
Assay type: biochemical
Conditions: Tris buffer
Description: 50 mM Tris, 150 mM NaCl, 10 μg/ml BSA, 0.01% Tween80 (SIGMA-ALDRICH Corporation)

T1 sequence (P05121 24-402): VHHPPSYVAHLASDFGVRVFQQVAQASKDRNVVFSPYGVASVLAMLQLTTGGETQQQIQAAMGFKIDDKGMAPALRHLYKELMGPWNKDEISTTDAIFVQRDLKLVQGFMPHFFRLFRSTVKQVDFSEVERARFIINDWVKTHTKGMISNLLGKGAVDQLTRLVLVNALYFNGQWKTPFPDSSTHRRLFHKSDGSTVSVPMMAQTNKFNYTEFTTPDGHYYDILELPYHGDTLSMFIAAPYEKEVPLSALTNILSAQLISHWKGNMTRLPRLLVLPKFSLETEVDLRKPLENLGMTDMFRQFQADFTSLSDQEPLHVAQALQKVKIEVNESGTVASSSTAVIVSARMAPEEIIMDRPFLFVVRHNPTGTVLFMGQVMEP

SMILES | Inhibition Rate of PAI-1 Activity (%) (Compound Concentration 5 μM) | Inhibition Rate of PAI-1 Activity (%) (Compound Concentration 10 μM) | Inhibition Rate of PAI-1 Activity (%) (Compound Concentration 25 μM)
CC(C)(Oc1ccc(-c2ccc(OC(F)(F)F)cc2)cc1Oc1ccc(C(C)(C)C)cc1)C(=O)O [Compound 110] | 37 | 51 | 83
COc1ccc(-c2ccc(OCc3ccc(C(C)(C)C)cc3)c(/C=C/C(=O)O)c2)cc1 [Compound 37] | 23 | 47 | 84
COc1cc(-c2ccc(OC(F)(F)F)cc2)cc(/C=C/C(=O)O)c1OCc1ccc(C(C)(C)C)cc1 [Compound 81] | 28 | 63 | 70
Cc1cc(-c2ccc(OC(F)(F)F)cc2)cc(/C=C/C(=O)O)c1OCc1ccc(C(C)(C)C)cc1 [Compound 83] | 27 | 46 | 56
CC(C)(C)c1ccc(-c2ccc(N(Cc3ccccc3)C(=O)C(=O)O)cc2)cc1 [Compound 156] | 10 | 25 | 67
Cc1cc(C)cc(COc2ccc(-c3ccc(OC(F)(F)F)cc3)cc2CCC(=O)O)c1 [Compound 59] | 25 | 53 | 77
O=C(O)CCc1cc(-c2ccc(OC(F)(F)F)cc2)ccc1Oc1ccc(C(=O)O)cc1 [Compound 14] | – | 3 | –
O=C(O)/C=C/c1cc(-c2ccc(OC(F)(F)F)cc2)ccc1OCc1ccccc1 [Compound 24] | – | 11 | 64
CC(C)(C)c1ccc(CN(C(=O)C(=O)O)c2ccc(-c3ccc(OC(F)(F)F)cc3)cc2C(F)(F)F)cc1 [Compound 150] | 33 | 75 | 87
CC(C)(C)c1ccc(CN(C(=O)C(=O)O)c2ccc(-c3ccc(C(F)(F)F)cc3)cc2)cc1 [Compound 145] | 7 | 35 | 74
COc1ccc(CN(C(=O)C(=O)O)c2ccc(-c3ccc(OC(F)(F)F)cc3)cc2)cc1 [Compound 131] | – | 10 | 34
O=C(O)CCc1cc(-c2ccc(OC(F)(F)F)cc2)ccc1OCc1cccc(C(F)(F)F)c1 [Compound 58] | 22 | 53 | 97
O=C(O)CCc1cc(-c2ccc(OC(F)(F)F)cc2)ccc1Oc1ccc(OC(F)(F)F)cc1 [Compound 16] | 23 | 46 | 96
O=C(O)C(=O)N(Cc1ccc(F)cc1)c1ccc(-c2ccc(OC(F)(F)F)cc2)cc1 [Compound 155] | 7 | 15 | 38
O=C(O)CCc1cc(-c2ccc(OC(F)(F)F)cc2)ccc1OCCCOc1ccccc1 [Compound 103] | 33 | 57 | 89
CC(C)(C)c1ccc(COc2ccc(-c3cccc(OC(F)(F)F)c3)cc2CCC(=O)O)cc1 [Compound 64] | 49 | 74 | 95
CSc1ccc(-c2ccc(OCc3ccc(C(C)(C)C)cc3)c(/C=C/C(=O)O)c2)cc1 [Compound 44] | 16 | 25 | 21
O=C(O)CCc1cc(-c2ccc(OC(F)(F)F)cc2)ccc1OCc1ccccc1 [Compound 3] | 35 | 68 | –
CC(C)(C)c1ccc(COc2cc(Oc3ccc(OC(F)(F)F)cc3)ccc2/C=C/C(=O)O)cc1 [Compound 77] | 27 | 51 | 73
CSc1ccc(-c2ccc(N(Cc3ccc(C(C)(C)C)cc3)C(=O)C(=O)O)cc2)cc1 [Compound 134] | – | 14 | 75
Cc1cc(C)cc(COc2ccc(-c3ccc(OC(F)(F)F)cc3)cc2CC(=O)O)c1 [Compound 11] | 41 | 84 | 99
CC(C)(OCc1ccc(-c2ccc(OC(F)(F)F)cc2)cc1Oc1ccc(C(C)(C)C)cc1)C(=O)O [Compound 111] | 55 | 88 | 94
CC(C)(C)c1ccc(COc2cc(-c3ccc(OC(F)(F)F)cc3)ccc2/C=C/C(=O)O)cc1 [Compound 75] | 25 | 53 | 91
CC(C)(C)c1ccc(-c2ccc(OCc3ccc(OC(F)(F)F)cc3)c(/C=C/C(=O)O)c2)cc1 [Compound 51] | 32 | 69 | 94
Cc1cc(-c2ccc(OC(F)(F)F)cc2)cc(C)c1N(Cc1ccc(C(C)(C)C)cc1)C(=O)C(=O)O [Compound 152] | 41 | 88 | 93
COc1ccc(COc2ccc(-c3ccc(OC(F)(F)F)cc3)cc2CCC(=O)O)cc1 [Compound 60] | 15 | 35 | 25
Cc1ccc(-c2ccc(OC(F)(F)F)cc2)cc1N(Cc1ccc(C(C)(C)C)cc1)C(=O)C(=O)O [Compound 136] | 16 | 47 | 79
CC(C)(C)c1ccc(COc2ccc(-c3ccc(OC(F)(F)F)cc3)cc2COCC(=O)O)cc1 [Compound 107] | 48 | 85 | 97

Further lines, results first:

Inhibition Rate of PAI-1 Activity (%) (Compound Concentration 5 μM) | Inhibition Rate of PAI-1 Activity (%) (Compound Concentration 10 μM) | Inhibition Rate of PAI-1 Activity (%) (Compound Concentration 25 μM) | SMILES
75 | 92 | – | CCC(CC)Oc1ccc(N(CCCc2ccccc2)C(=O)C(=O)O)c(-c2ccc(OC(F)(F)F)cc2)c1 [Compound 237]
14 | 31 | 84 | O=C(O)CCc1cc(OCc2ccc(OC(F)(F)F)cc2)ccc1OCc1ccc(OC(F)(F)F)cc1 [Compound 404]
93 | 99 | – | O=C(O)C(=O)N(CCCCc1ccccc1)c1ccc(N2CCCCC2)c(-c2ccc(OC(F)(F)F)cc2)c1 [Compound 247]
30 | 74 | >99 | CC(C)(C)c1ccc(-c2ccc(N(Cc3ccc(OC(F)(F)F)cc3)C(=O)C(=O)O)cc2)cc1 [Compound 162]
60 | 89 | 96 | CC(C)Oc1ccc(N(CCCCc2ccccc2)C(=O)C(=O)O)cc1-c1ccc(OC(F)(F)F)cc1 [Compound 248]
25 | 56 | 96 | CC(C)(C)c1ccc(N(C(=O)C(=O)O)c2ccccc2-c2ccc(OC(F)(F)F)cc2)cc1 [Compound 157]
83 | 78 | – | CC(C)(C)Oc1ccc(N(Cc2ccc(C(C)(C)C)cc2)C(=O)C(=O)O)cc1-c1ccc(OC(F)(F)F)cc1 [Compound 218]
75 | 88 | 84 | CC(C)(C)c1ccc(CN(C(=O)C(=O)O)c2ccc(N3CCOCC3)c(-c3ccc(OC(F)(F)F)cc3)c2)cc1 [Compound 216]
83 | 78 | – | O=C(O)C(=O)N(CCCCc1ccccc1)c1ccc(N2CCCCC2=O)c(-c2ccc(OC(F)(F)F)cc2)c1 [Compound 250]
21 | 45 | 92 | O=C(O)C(=O)N(Cc1ccc(OC(F)(F)F)cc1)c1ccc(-c2ccc(OC(F)(F)F)cc2)cc1 [Compound 159]
22 | 46 | 92 | CC(C)(C)c1ccc(COc2ccc(Nc3ccc(OC(F)(F)F)cc3)cc2CCC(=O)O)cc1 [Compound 412]
74 | 92 | 87 | CC(C)(C)c1ccc(CN(C(=O)C(=O)O)c2ccc(Cl)cc2Oc2ccc(OC(F)(F)F)cc2)cc1 [Compound 191]
14 | 34 | 65 | CC(C)(C)c1ccc(COc2ccc(-c3ccc(OC(F)(F)F)cc3)cc2NCC(=O)O)cc1 [Compound 539]
59 | 91 | 84 | CC(C)(C)c1ccc(CN(C(=O)C(=O)O)c2ccc(C(F)(F)F)cc2-c2ccc(OC(F)(F)F)cc2)cc1 [Compound 169]
3 | 6 | 34 | CCCCCCN(C(=O)C(=O)O)c1ccc(Oc2ccc(OC(F)(F)F)cc2)cc1 [Compound 252]
42 | 64 | 83 | CC(C)(Nc1cc(-c2ccc(OC(F)(F)F)cc2)ccc1OCc1ccc(C(C)(C)C)cc1)C(=O)O [Compound 420]
